{"source": "patent US20040049075A1", "about": "“Process for the production of calcium pantothenate” (priority 2000, published 2004)", "assay": "Moisture absorption test", "format": "physicochemical", "conditions": "40° C. and 75% RH; nonhygroscopic defined in b24 as moisture absorption 2% or less after 24 hours", "description": "The term “crystalline” used in the specification encompasses a substance containing a small amount of an amorphous part, as well as a substance substantially consisting completely of crystals. However, calcium pantothenate in a completely amorphous state (the state which gives substantially no detectable peak by the powder X-ray diffraction analysis) is excluded. The term “crystalline” should not be interpreted to exclude a substance containing a small amount of an amorphous part. Further, the term “amorphous” means a state in which no peak is substantially detectable by powder X-ray diffraction analysis. The term “nonhygroscopic” used in the specification means that a moisture absorption amount is 2% or less, preferably 1% or less, after 24 hours at 40° C. under a relative humidity of 75%. A moisture absorption test was performed under conditions of 40° C. and 75% RH for the PC consisting of α-form crystals obtained in Example 1 and the PC consisting of β-form crystals obtained in Example 7. A similar test was performed for the amorphous PC used in Example 1 as a control.", "data": [{"substance": "monocalcium bis[(R)-N-(2,4-dihydroxy-3,3-dimethylbutyryl)-β-alaninate]", "values": [{"measurement": "hygroscopicity (verdict of moisture absorption test)", "result": "nonhygroscopic"}]}]}
